Key:
Type in all cases: cell-based
[1] = test system: Candida krusei; assay: MIC, RPMI medium; details: 24-48 h at 35° C., >80% growth inhibition, banded into grades
Procedure, shortened: (§1)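 Minimum inhibitory concentrations were determined in glucose-supplemented (2%) RPMI buffered to pH 7.0 with 0.135 M MOPS. Wells held 1−2×10^4 cfu/mL and compound from 50 to 0.05 mg/L, incubated 24-48 h at 35° C, with >80% growth reduction by OD 485 nm as endpoint.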

[2] = test system: Aspergillus niger; assay: MIC, RPMI medium; details: MIC banded into grades
Procedure, shortened: as §1

[3] = test system: Aspergillus terreus AT4; assay: MIC, RPMI medium; details: MIC banded into grades
Procedure, shortened: as §1

[4] = test system: Candida albicans; assay: MIC, RPMI medium; details: 24-48 h at 35° C., >80% growth inhibition, banded into grades
Procedure, shortened: as §1

[5] = test system: Aspergillus terreus AT49; assay: MIC, RPMI medium; details: MIC banded into grades
Procedure, shortened: as §1

[6] = test system: Candida glabrata; assay: MIC, RPMI medium; details: 24-48 h at 35° C., >80% growth inhibition, banded into grades
Procedure, shortened: as §1

[7] = test system: Candida parapsilosis; assay: MIC, RPMI medium; details: 24-48 h at 35° C., >80% growth inhibition, banded into grades
Procedure, shortened: as §1

[8] = test system: Aspergillus fumigatus AF210; assay: MIC, RPMI medium; details: MIC banded into grades
Procedure, shortened: as §1

[9] = test system: Aspergillus fumigatus AF293; assay: MIC, RPMI medium; details: MIC banded into grades
Procedure, shortened: as §1

[10] = test system: Candida tropicalis; assay: MIC, RPMI medium; details: 24-48 h at 35° C., >80% growth inhibition, banded into grades
Procedure, shortened: as §1

[11] = test system: Aspergillus flavus; assay: MIC, RPMI medium; details: MIC banded into grades
Procedure, shortened: as §1

[12] = test system: Aspergillus niger; assay: MIC, YAG medium; details: 24 h at 35° C, MIC banded into grades
Procedure, shortened: (§2)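 Spores harvested from 5-day Sabouraud agar cultures were inoculated at 1−2×10^4 cfu/mL into YAG medium (1% glucose, 1% ammonium chloride, 0.5% yeast extract) over doubling drug dilutions spanning 50-0.05 mg/L, or 0.5-0.0005 mg/L on repeat. After 24 h at 35° C, OD485 was read. MIC is the lowest concentration inhibiting growth >70% versus drug-free control, in mg/L.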

[13] = test system: Aspergillus terreus AT4; assay: MIC, YAG medium; details: 24 h at 35° C, MIC banded into grades
Procedure, shortened: as §2

[14] = test system: Aspergillus terreus AT49; assay: MIC, YAG medium; details: 24 h at 35° C, MIC banded into grades
Procedure, shortened: as §2

[15] = test system: Aspergillus fumigatus AF210; assay: MIC, YAG medium; details: 24 h at 35° C, MIC banded into grades
Procedure, shortened: as §2

[16] = test system: Aspergillus fumigatus AF293; assay: MIC, YAG medium; details: 24 h at 35° C, MIC banded into grades
Procedure, shortened: as §2

[17] = test system: Aspergillus flavus; assay: MIC, YAG medium; details: 24 h at 35° C, MIC banded into grades
Procedure, shortened: as §2

| SMILES | Candida MIC, C. krusei [1] | MIC grade, A. niger [2] | MIC grade, A. terreus [3] | Candida MIC, C. albicans [4] | MIC grade, A. terreus 49 [5] | Candida MIC, C. glabrata [6] | Candida MIC, C. parapsilosis [7] | MIC grade, A. fumigatus 210 [8] | MIC grade, A. fumigatus [9] | Candida MIC, C. tropicalis [10] | MIC grade, A. flavus [11] | MIC grade, A. niger [12] | MIC grade, A. terreus [13] | MIC grade, A. terreus 49 [14] | MIC grade, A. fumigatus 210 [15] | MIC grade, A. fumigatus [16] | MIC grade, A. flavus [17] |
| --- | --- | --- | --- | --- | --- | --- | --- | --- | --- | --- | --- | --- | --- | --- | --- | --- | --- |
| COC(=O)Cn1ccc(-c2cccs2)c1C(=O)C(=O)Nc1ccc(N2CCN(c3cc(C)cc(C)n3)CC2)cc1 [Example 87, (2-{4-[4-(4,6-Dimethyl-pyridin-2-yl)-piperazin-1-yl]-phenylaminooxalyl}-3-thiophen-2-yl-pyrrol-1-yl)-acetic acid methyl ester] | 2 (A grade of 2 represents an MIC of from 1 to 10 mg/L) | 3 (A grade of 3 represents an MIC of less than 1 mg/L) | 2 (A grade of 2 represents an MIC of from 1 to 10 mg/L) | 2 (A grade of 2 represents an MIC of from 1 to 10 mg/L) | 2 (A grade of 2 represents an MIC of from 1 to 10 mg/L) | 3 (A grade of 3 represents an MIC of less than 1 mg/L) | 3 (A grade of 3 represents an MIC of less than 1 mg/L) | 3 (A grade of 3 represents an MIC of less than 1 mg/L) | 3 (A grade of 3 represents an MIC of less than 1 mg/L) | 3 (A grade of 3 represents an MIC of less than 1 mg/L) | 1 (a grade of 1 represents an MIC of greater than 10 mg/L) | 3 (A grade of 3 represents an MIC of less than 1 mg/L) | 2 (A grade of 2 represents an MIC of from 1 to 10 mg/L) | 3 (A grade of 3 represents an MIC of less than 1 mg/L) | 3 (A grade of 3 represents an MIC of less than 1 mg/L) | 3 (A grade of 3 represents an MIC of less than 1 mg/L) | 1 (a grade of 1 represents an MIC of greater than 10 mg/L) |
| COC(=O)Cn1ccc(C(C)C)c1C(=O)C(=O)Nc1ccc(N2CCN(c3cc(C)cc(C)n3)CC2)cc1 [Example 88] | 3 (A grade of 3 represents an MIC of less than 1 mg/L) | 2 (A grade of 2 represents an MIC of from 1 to 10 mg/L) | 1 (a grade of 1 represents an MIC of greater than 10 mg/L) | 2 (A grade of 2 represents an MIC of from 1 to 10 mg/L) | 1 (a grade of 1 represents an MIC of greater than 10 mg/L) | 3 (A grade of 3 represents an MIC of less than 1 mg/L) | 3 (A grade of 3 represents an MIC of less than 1 mg/L) | 3 (A grade of 3 represents an MIC of less than 1 mg/L) | 3 (A grade of 3 represents an MIC of less than 1 mg/L) | 3 (A grade of 3 represents an MIC of less than 1 mg/L) | 1 (a grade of 1 represents an MIC of greater than 10 mg/L) | 2 (A grade of 2 represents an MIC of from 1 to 10 mg/L) | 2 (A grade of 2 represents an MIC of from 1 to 10 mg/L) | 1 (a grade of 1 represents an MIC of greater than 10 mg/L) | 3 (A grade of 3 represents an MIC of less than 1 mg/L) | 3 (A grade of 3 represents an MIC of less than 1 mg/L) | 1 (a grade of 1 represents an MIC of greater than 10 mg/L) |
| COC(=O)Cn1ccc(CC(C)C)c1C(=O)C(=O)Nc1ccc(N2CCN(c3cc(C)cc(C)n3)CC2)cc1 [Example 89, (2-{4-[4-(4,6-Dimethyl-pyridin-2-yl)-piperazin-1-yl]-phenylaminooxalyl}-3-isobutyl-pyrrol-1-yl)-acetic acid methyl ester] | 3 (A grade of 3 represents an MIC of less than 1 mg/L) | 2 (A grade of 2 represents an MIC of from 1 to 10 mg/L) | 1 (a grade of 1 represents an MIC of greater than 10 mg/L) | 2 (A grade of 2 represents an MIC of from 1 to 10 mg/L) | 1 (a grade of 1 represents an MIC of greater than 10 mg/L) | 3 (A grade of 3 represents an MIC of less than 1 mg/L) | 3 (A grade of 3 represents an MIC of less than 1 mg/L) | 2 (A grade of 2 represents an MIC of from 1 to 10 mg/L) | 2 (A grade of 2 represents an MIC of from 1 to 10 mg/L) | 3 (A grade of 3 represents an MIC of less than 1 mg/L) | 1 (a grade of 1 represents an MIC of greater than 10 mg/L) | 2 (A grade of 2 represents an MIC of from 1 to 10 mg/L) | 2 (A grade of 2 represents an MIC of from 1 to 10 mg/L) | 2 (A grade of 2 represents an MIC of from 1 to 10 mg/L) | 3 (A grade of 3 represents an MIC of less than 1 mg/L) | 3 (A grade of 3 represents an MIC of less than 1 mg/L) | 1 (a grade of 1 represents an MIC of greater than 10 mg/L) |
| COCCn1c(C)cc(-c2ccccc2)c1C(=O)C(=O)Nc1ccc(N2CCN(c3ccc(CN4CCOCC4)cn3)CC2)cc1 [Example 103, 2-[1-(2-Methoxy-ethyl)-5-methyl-3-pheny-1H-pyrrol-2-yl]-N-{4-[4-(5-morpholin-4-ylmethyl-pyridin-2-yl)-piperazin-1-yl]-phenyl}-2-oxo-acetamide] | 3 (A grade of 3 represents an MIC of less than 1 mg/L) | 3 (A grade of 3 represents an MIC of less than 1 mg/L) | 2 (A grade of 2 represents an MIC of from 1 to 10 mg/L) | 3 (A grade of 3 represents an MIC of less than 1 mg/L) | 2 (A grade of 2 represents an MIC of from 1 to 10 mg/L) | 3 (A grade of 3 represents an MIC of less than 1 mg/L) | 3 (A grade of 3 represents an MIC of less than 1 mg/L) | 2 (A grade of 2 represents an MIC of from 1 to 10 mg/L) | 2 (A grade of 2 represents an MIC of from 1 to 10 mg/L) | 3 (A grade of 3 represents an MIC of less than 1 mg/L) | 1 (a grade of 1 represents an MIC of greater than 10 mg/L) | 1 (a grade of 1 represents an MIC of greater than 10 mg/L) | 2 (A grade of 2 represents an MIC of from 1 to 10 mg/L) | 2 (A grade of 2 represents an MIC of from 1 to 10 mg/L) | 3 (A grade of 3 represents an MIC of less than 1 mg/L) | 3 (A grade of 3 represents an MIC of less than 1 mg/L) | 1 (a grade of 1 represents an MIC of greater than 10 mg/L) |
| COCCn1ccc(C2CCC2)c1C(=O)C(=O)Nc1ccc(N2CCN(c3cc(C)cc(C)n3)CC2)cc1 [Example 104, 2-[3-Cyclobutyl-1-(2-methoxy-ethyl)-1H-pyrrol-2-yl]-N-{4-[4-(4,6-dimethyl-pyridin-2-yl)-piperizin-1-yl]-phenyl}-2-oxo-acetamide] | 2 (A grade of 2 represents an MIC of from 1 to 10 mg/L) | 1 (a grade of 1 represents an MIC of greater than 10 mg/L) | 1 (a grade of 1 represents an MIC of greater than 10 mg/L) | 2 (A grade of 2 represents an MIC of from 1 to 10 mg/L) | 1 (a grade of 1 represents an MIC of greater than 10 mg/L) | 3 (A grade of 3 represents an MIC of less than 1 mg/L) | 3 (A grade of 3 represents an MIC of less than 1 mg/L) | 1 (a grade of 1 represents an MIC of greater than 10 mg/L) | 1 (a grade of 1 represents an MIC of greater than 10 mg/L) | 3 (A grade of 3 represents an MIC of less than 1 mg/L) | 1 (a grade of 1 represents an MIC of greater than 10 mg/L) | 1 (a grade of 1 represents an MIC of greater than 10 mg/L) | 2 (A grade of 2 represents an MIC of from 1 to 10 mg/L) | 2 (A grade of 2 represents an MIC of from 1 to 10 mg/L) | 2 (A grade of 2 represents an MIC of from 1 to 10 mg/L) | 2 (A grade of 2 represents an MIC of from 1 to 10 mg/L) | 1 (a grade of 1 represents an MIC of greater than 10 mg/L) |
